Test results taken from article PMC10977726 (PLOS ONE, 2024).
Like-named read-outs stand apart in the source and are kept apart here. Where a SMILES comes first, the peptide text is derived from it. Bridges are numbered along the chain shown (N, C = ends).

Legend:
human IgG Fc [1] = molecular target: T1, human IgG Fc (Homo sapiens, UniProt P01857); experiment: SPR; format: binding
T1 construct: Biotin-SP-ChromPure Human IgG, Fc fragment; purchased Jackson Immunoresearch Labs Inc. 009060008

human IgG Fc [2] = molecular target: T1, human IgG Fc; experiment: Phage competition ELISA (synthetic DCP vs its own phage); format: binding; conditions: Table S12; synthetic DCP competing with its own phage for biotinylated human IgG Fc on neutravidin plate; absorbance 450 nm; averaged from at least three independent runs
Ly6E-rat IgG Fc = Ly6E-rat IgG Fc (UniProt P20761+Q16553); experiment: SPR; set-up: species or system human; conditions: Table S17, first KD value, at least three independent runs, estimated values due to possible non-specific binding, read-out: KD against rat Fc-Ly6E
Protocol: (§1) SPR measurements were carried out on a Biacore S200 instrument (GE Healthcare) with PBS-T (PBS with 0.05% Tween 20, pH 7.4) as the assay buffer as described previously. For kinetic measurements, biotinylated protein was captured on three separate sensor channels of a Series S SA Sensor chip (GE Healthcare). The chip was then blocked with 0.1 mg/mL free biotin. A concentration series of the DCP were injected to the chip. Data were double-referenced by subtracting the signal from a control sensor channel (coated with biotin only) and the signal from a buffer injection. Binding data were fitted using the manufacturer’s software (1:1 or two state binding model for single-cycle kinetics or steady-state model for multi-cycle kinetics).

PDGF bb = molecular target: T2, PDGF bb (Homo sapiens, UniProt P01127); experiment: SPR; conditions: Table S16; SPR against PDGF bb; averaged from at least three independent runs; estimated KD values due to possible non-specific binding
T2 construct: purchased R&D Systems BT220-010/CF
Protocol: as §1

human serum albumin = molecular target: T3, human serum albumin (Homo sapiens, UniProt P02768); experiment: Phage competition ELISA with phage displaying Hs-CHR-3; format: binding; conditions: Fig 4H
T3 construct: purchased Rockland Immunochemicals, Inc. 009–0633
Protocol: To analyze the competitive binding to the target protein for the synthetic DCP and its phage counterpart displaying the same DCP, 384-well plates were coated with 2 μg/mL of neutravidin in PBS overnight at 4°C. The plates were blocked with PBS containing 0.5% BSA and incubated with biotinylated human IgG Fc or serum albumin for 20 min at room temperature. Serial diluted synthetic DCP was pre-incubated with phage for 30 min at room temperature then the mixture was added to the 384 well plates for 30 min at room temperature. The plates were washed and incubate with anti-M13 antibody (1:10,000, HRP conjugated, Creative Diagnostics, cat# CAB-655M) for 30 min at room temperature, followed by washing, development and quenching (1 M H3PO4). The absorbance at 450 nm was recorded to calculate the IC50 values.
To further map the binding epitopes of the Ig-DCPs on human IgG Fc, we developed a protein A-human IgG Fc competition ELISA. […] The findings imply Hs-CHR-1 and -3 bind to a similar epitope on human serum albumin, which partially overlap with the SA21 binding site (Fig 4I).

human VEGF-A = molecular target: T4, human VEGF-A (Homo sapiens, UniProt P15692); experiment: SPR; format: binding
T4 construct: biotin-VEGF-A (8–109, Genentech)
T4 sequence (P15692 214-315): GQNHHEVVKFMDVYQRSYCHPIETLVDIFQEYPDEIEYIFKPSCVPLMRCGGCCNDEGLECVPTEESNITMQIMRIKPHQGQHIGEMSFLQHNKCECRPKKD

Ly6E-rat IgG Fc, sequence (Q16553+P20761 fused): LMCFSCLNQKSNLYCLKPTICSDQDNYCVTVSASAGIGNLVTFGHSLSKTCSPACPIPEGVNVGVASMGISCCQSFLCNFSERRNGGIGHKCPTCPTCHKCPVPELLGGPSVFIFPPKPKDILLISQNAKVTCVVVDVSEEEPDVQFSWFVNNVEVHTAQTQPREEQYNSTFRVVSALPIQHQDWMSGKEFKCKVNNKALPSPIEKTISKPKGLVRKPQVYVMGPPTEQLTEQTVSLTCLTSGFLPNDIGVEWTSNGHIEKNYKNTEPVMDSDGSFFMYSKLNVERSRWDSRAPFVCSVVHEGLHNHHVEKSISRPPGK
T3 sequence (P02768 25-609): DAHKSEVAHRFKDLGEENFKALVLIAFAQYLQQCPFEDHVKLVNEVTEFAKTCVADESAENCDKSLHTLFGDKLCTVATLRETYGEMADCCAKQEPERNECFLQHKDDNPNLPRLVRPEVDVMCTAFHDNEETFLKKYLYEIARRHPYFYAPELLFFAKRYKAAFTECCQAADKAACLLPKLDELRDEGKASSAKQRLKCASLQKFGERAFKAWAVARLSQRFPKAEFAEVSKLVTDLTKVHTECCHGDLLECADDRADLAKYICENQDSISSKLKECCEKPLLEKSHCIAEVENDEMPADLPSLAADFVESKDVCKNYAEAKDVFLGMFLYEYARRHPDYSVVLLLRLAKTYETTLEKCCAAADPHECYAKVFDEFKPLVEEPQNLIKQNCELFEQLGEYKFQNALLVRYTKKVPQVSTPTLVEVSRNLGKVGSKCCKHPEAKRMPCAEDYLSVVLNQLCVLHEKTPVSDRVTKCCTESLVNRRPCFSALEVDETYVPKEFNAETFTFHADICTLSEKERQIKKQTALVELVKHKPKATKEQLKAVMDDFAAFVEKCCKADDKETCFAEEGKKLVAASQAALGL
T2 sequence (P01127 82-190 limits assumed): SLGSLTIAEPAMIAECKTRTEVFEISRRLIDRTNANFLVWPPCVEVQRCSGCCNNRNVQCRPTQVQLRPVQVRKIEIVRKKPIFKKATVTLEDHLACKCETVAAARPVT

In the case of `CC[C@H](C)[C@@H]1NC(=O)[C@H](C)NC(=O)[C@H](CO)NC(=O)[C@@H]2CSSC[C@@H]3NC(=O)[C@H](Cc4ccc(O)cc4)NC(=O)CNC(=O)[C@H](Cc4ccccc4)NC(=O)[C@H](CCC(N)=O)NC(=O)[C@H](CO)NC(=O)[C@H](CSSC[C@H](NC(=O)[C@H](CCC(=O)O)NC(=O)CNC(=O)[C@@H](N)C(C)C)C(=O)N[C@@H](C(C)C)C(=O)N[C@@H](CCCNC(=N)N)C(=O)NCC(=O)N[C@@H](CCCNC(=N)N)C(=O)N2)NC(=O)[C@H](CSSC[C@@H](C(=O)NCC(=O)O)NC(=O)[C@H](Cc2ccc(O)cc2)NC(=O)[C@H](CCCCN)NC(=O)[C@@H]2CCCN2C(=O)CNC(=O)[C@H](CCCCN)NC(=O)CNC3=O)NC(=O)[C@H](CO)NC1=O` [Ig-AMP-2] (H-VGECVRGRCSAISCCSQFGYCGKGPKYCG-OH; disulfide 4-15, 9-21, 14-28), the KD (human IgG Fc [1]; Table S12, SPR Biacore S200, PBS-T pH 7.4, biotinylated protein on SA chip, averaged from at least three independent runs, N.A. = no detectable binding, * estimated value due to possible non-specific binding) is reported as “aggregation”.

For `CSCC[C@@H]1NC(=O)[C@H](Cc2ccc(O)cc2)NC(=O)[C@H](Cc2c[nH]c3ccccc23)NC(=O)[C@H](Cc2ccc(O)cc2)NC(=O)CNC(=O)[C@@H](NC(=O)CN)CSSC[C@@H]2NC(=O)CNC(=O)[C@H](C)NC(=O)[C@H](CC(C)C)NC(=O)[C@@H]3CSSC[C@@H](C(=O)NCC(=O)O)NC(=O)[C@H](CCC(=O)O)NC(=O)[C@@H]4CCCN4C(=O)[C@H](CCCCN)NC(=O)[C@@H]4CCCN4C(=O)[C@H](CCCNC(=N)N)NC(=O)[C@H](CSSC[C@H](NC(=O)[C@H](Cc4ccccc4)NC(=O)[C@H](Cc4c[nH]c5ccccc45)NC(=O)[C@H](CCC(N)=O)NC1=O)C(=O)N[C@@H](CCCCN)C(=O)N[C@@H](CCC(N)=O)C(=O)N[C@@H](CC(=O)O)C(=O)N[C@@H](CO)C(=O)N[C@@H](CC(=O)O)C(=O)N3)NC(=O)[C@H](C(C)C)NC2=O` [Ig-EET-4], the Kd (human IgG Fc [1]; Table S12, SPR Biacore S200, PBS-T pH 7.4, biotinylated protein on SA chip, averaged from at least three independent runs, N.A. = no detectable binding, * estimated value due to possible non-specific binding, read-out: KD) was 0.948 µM and the IC50 (human IgG Fc [2]) was 0.823 µM.

Work on `CC[C@H](C)[C@@H]1NC(=O)[C@H](C)NC(=O)[C@@H](NC(=O)CN)CSSC[C@@H]2NC(=O)CNC(=O)[C@H](C)NC(=O)[C@H](CC(C)C)NC(=O)[C@@H]3CSSC[C@@H](C(=O)NCC(=O)O)NC(=O)[C@H](Cc4ccccc4)NC(=O)CNC(=O)[C@H](CC(N)=O)NC(=O)[C@@H]4CCCN4C(=O)CNC(=O)[C@H](CSSC[C@H](NC(=O)[C@H](CCC(N)=O)NC(=O)[C@H](Cc4ccccc4)NC(=O)[C@H](CCSC)NC(=O)[C@H](Cc4c[nH]c5ccccc45)NC(=O)CNC(=O)[C@H](CCSC)NC(=O)[C@H](Cc4c[nH]cn4)NC(=O)[C@H](Cc4ccc(O)cc4)NC1=O)C(=O)N[C@@H](CCCCN)C(=O)N[C@@H](CCC(N)=O)C(=O)N[C@@H](CC(=O)O)C(=O)N[C@@H](CO)C(=O)N[C@@H](CC(=O)O)C(=O)N3)NC(=O)[C@H](C(C)C)NC2=O` [L-EET-7] yielded a Kd (Ly6E-rat IgG Fc) of 0.022 µM.

For `CC[C@H](C)[C@@H]1NC(=O)[C@H](Cc2ccccc2)NC(=O)[C@@H]2CCCN2C(=O)[C@H](CC(N)=O)NC(=O)[C@H](CC(=O)O)NC(=O)[C@H](CC(=O)O)NC(=O)[C@H](Cc2ccccc2)NC(=O)[C@@H](NC(=O)CN)CSSC[C@@H]2NC(=O)CNC(=O)[C@H](C)NC(=O)[C@H](CC(C)C)NC(=O)[C@@H]3CSSC[C@@H](C(=O)NCC(=O)O)NC(=O)[C@H](Cc4c[nH]c5ccccc45)NC(=O)[C@H]([C@@H](C)O)NC(=O)[C@H](CC(=O)O)NC(=O)[C@H](Cc4ccc(O)cc4)NC(=O)[C@H](Cc4c[nH]c5ccccc45)NC(=O)[C@H](CSSC[C@H](NC(=O)[C@H](C)NC1=O)C(=O)N[C@@H](CCCCN)C(=O)N[C@@H](CCC(N)=O)C(=O)N[C@@H](CC(=O)O)C(=O)N[C@@H](CO)C(=O)N[C@@H](CC(=O)O)C(=O)N3)NC(=O)[C@H](C(C)C)NC2=O` [P-EET-6] (H-GCFDDNPFIACKQDSDCLAGCVCWYDTWCG-OH; disulfide 2-21, 11-23, 17-29), the Kd (PDGF bb) was > 6.7 µM.

In the case of `CC[C@H](C)[C@H](NC(=O)[C@H](CC(C)C)NC(=O)[C@@H](N)CCCNC(=N)N)C(=O)N[C@@H](CCC(=O)O)C(=O)N[C@@H](CC(=O)O)C(=O)N[C@H](C(=O)N[C@H]1CSSC[C@@H](C(=O)N[C@@H](CC(C)C)C(=O)N[C@@H](Cc2c[nH]c3ccccc23)C(=O)N[C@@H](CCC(=O)O)C(=O)N[C@@H](CC(=O)O)C(=O)N[C@@H](CC(=O)O)C(=O)O)NC(=O)CNC(=O)[C@H](Cc2c[nH]c3ccccc23)NC(=O)[C@H](CCCNC(=N)N)NC(=O)[C@@H]2CCCN2C(=O)[C@H](CC(C)C)NC1=O)[C@@H](C)CC` [SA21] (H-RLIEDICLPRWGCLWEDD-OH; disulfide 7-13 (inferred); N-terminus and C-terminus assumed), the “inhibition of interaction between biotinylated human serum albumin and phage displaying Hs-CHR-3” value (human serum albumin) is reported as “partially disrupted”.

In the case of `CC[C@H](C)[C@@H]1NC(=O)[C@H](C(C)C)NC(=O)[C@H](Cc2c[nH]cn2)NC(=O)[C@H](Cc2ccc(O)cc2)NC(=O)[C@H](CCC(=O)O)NC(=O)[C@H](CCC(N)=O)NC(=O)[C@H](CC(=O)O)NC(=O)[C@H]([C@@H](C)O)NC(=O)[C@H](C)NC(=O)[C@H](Cc2c[nH]c3ccccc23)NC(=O)[C@H](C(C)C)NC(=O)[C@H](C)NC(=O)[C@H](CO)NC(=O)[C@@H]2CSSC[C@@H]3NC(=O)[C@H](CO)NC(=O)CNC(=O)[C@H]([C@@H](C)O)NC(=O)[C@H](CSSC[C@H](N)C(=O)N[C@@H](CCCCN)C(=O)NCC(=O)N[C@@H](CCCCN)C(=O)NCC(=O)N[C@@H](C)C(=O)N[C@@H](CCCCN)C(=O)N2)NC(=O)[C@H](CSSC[C@@H](C(=O)O)NC(=O)[C@H](CCCCN)NC(=O)CNC(=O)[C@H](CO)NC(=O)[C@H](CCCNC(=N)N)NC3=O)NC1=O` [V-CON-1], the Kd (human VEGF-A) is reported as > 4.6 µM.

In the case of `CC[C@H](C)[C@@H]1NC(=O)[C@H]([C@@H](C)O)NC(=O)[C@H](Cc2ccccc2)NC(=O)[C@@H]2CCCN2C(=O)[C@H](Cc2ccccc2)NC(=O)[C@H](Cc2c[nH]c3ccccc23)NC(=O)[C@@H]2CCCN2C(=O)[C@H]([C@@H](C)O)NC(=O)[C@H](CCSC)NC(=O)[C@@H](NC(=O)CN)CSSC[C@@H]2NC(=O)CNC(=O)[C@H](C)NC(=O)[C@H](CC(C)C)NC(=O)[C@@H]3CSSC[C@@H](C(=O)NCC(=O)O)NC(=O)[C@H](Cc4ccccc4)NC(=O)CNC(=O)[C@H](CC(N)=O)NC(=O)[C@@H]4CCCN4C(=O)CNC(=O)[C@H](CSSC[C@H](NC(=O)[C@H](CC(N)=O)NC1=O)C(=O)N[C@@H](CCCCN)C(=O)N[C@@H](CCC(N)=O)C(=O)N[C@@H](CC(=O)O)C(=O)N[C@@H](CO)C(=O)N[C@@H](CC(=O)O)C(=O)N3)NC(=O)[C@H](C(C)C)NC2=O` [V-EET-3] (H-GCMTPWFPFTINCKQDSDCLAGCVCGPNGFCG-OH; disulfide 2-23, 13-25, 19-31), the Kd (human VEGF-A; Table S16, SPR against VEGF-A, averaged from at least three independent runs, estimated KD values due to possible non-specific binding, read-out: KD) is reported as > 1.5 µM.

In the case of `CSCC[C@@H]1NC(=O)[C@H](CC(C)C)NC(=O)[C@H](CCCNC(=N)N)NC(=O)[C@H](CO)NC(=O)[C@@H]2CSSC[C@@H]3NC(=O)[C@H](CO)NC(=O)CNC(=O)[C@H]([C@@H](C)O)NC(=O)[C@H](CSSC[C@H](N)C(=O)N[C@@H](CCCCN)C(=O)NCC(=O)N[C@@H](CCCCN)C(=O)NCC(=O)N[C@@H](C)C(=O)N[C@@H](CCCCN)C(=O)N2)NC(=O)[C@H](CSSC[C@@H](C(=O)O)NC(=O)[C@H](CCCCN)NC(=O)CNC(=O)[C@H](CO)NC(=O)[C@H](CCCNC(=N)N)NC3=O)NC(=O)[C@H](CC(=O)O)NC(=O)[C@H](Cc2ccc(O)cc2)NC1=O` [W T CON, reference compound], the Kd (human IgG Fc [1]) is reported as > 20 µM.
